The nature of series [1]: Liver microsomal metabolic stability, rat. The conditions noted are these: rat liver microsomes 0.5 mg protein/mL, 1 μM, 37 °C. The series is classed as in vitro ADME. As to the method: (§1) Liver microsome samples (0.5 mg protein/mL) from mouse, rat, and human (Corning, Glendale, AZ, USA) in PBS and the test compound (final concentration 1 μM) were mixed. Following the addition of the NADPH regenerating solution (Corning), the samples were incubated at 37 °C for 30 min. The reaction was stopped by the addition of ice-cold acetonitrile, and the samples were centrifuged at 4000 rpm for 15 min.

For the next series, the target named is CYP2C19 (Homo sapiens, UniProt P33261). Put plainly: CYP450 enzyme inhibition, CYP2C19.
A further series concerns SARS-CoV-2. Kind of series: microbe, parasite or virus in culture. The series is classed as cell-based. The conditions noted are these: Severe acute respiratory syndrome coronavirus 2, Vero, 24 h; read-out: IC50, SARS-CoV-2 inhibition.
A short description of series [2]: Liver microsomal metabolic stability, mouse. The conditions noted are these: mouse liver microsomes 0.5 mg protein/mL, 1 μM, 37 °C. Format: in vitro ADME. As to the method: as §1
(In general: Microsomes from liver hold many membrane-bound enzymes, among them those of drug oxidation.)

Another series concerns the target T1, CYP1A2 (Homo sapiens, UniProt P05177).
T1 sequence (P05177 1-516): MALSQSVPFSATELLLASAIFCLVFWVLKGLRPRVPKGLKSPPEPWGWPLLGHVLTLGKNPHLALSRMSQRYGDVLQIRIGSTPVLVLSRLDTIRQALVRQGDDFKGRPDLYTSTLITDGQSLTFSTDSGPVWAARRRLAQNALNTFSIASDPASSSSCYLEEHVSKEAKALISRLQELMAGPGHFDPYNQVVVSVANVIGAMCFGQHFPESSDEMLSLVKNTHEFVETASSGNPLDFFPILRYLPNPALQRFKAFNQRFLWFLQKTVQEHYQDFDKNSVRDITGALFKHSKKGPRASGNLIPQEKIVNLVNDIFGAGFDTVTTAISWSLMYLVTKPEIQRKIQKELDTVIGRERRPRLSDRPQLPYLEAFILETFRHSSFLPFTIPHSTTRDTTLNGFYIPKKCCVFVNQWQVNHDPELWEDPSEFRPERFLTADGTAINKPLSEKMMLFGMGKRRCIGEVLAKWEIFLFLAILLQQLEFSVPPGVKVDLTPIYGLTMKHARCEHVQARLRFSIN
Put plainly: CYP450 enzyme inhibition, CYP1A2.

Another series can be described thus: in vitro. The conditions noted are these: African green monkey.
A short description of series [3]: Pharmacokinetic study in mice. Format: in vivo. The conditions noted are these: for Cmax / Tmax: n = 3. As to the method: Seven-week-old male ICR mice were purchased from Nara Bio Co., Ltd. (Pyungtaek, Korea) and housed under 24 °C, 50% humidity, and 12 h day/night cycle conditions with access to standard chow and drinking water. Mice were acclimated for 1 week before the experiments. All animal procedures were approved by the KRICT Animal Care and Use Committee (ACUC approval number, DDP-7221). A total of 10 mg/kg of compound in a 5:40:55 ratio of DMSO:PEG400:DW was intraperitoneally or orally administered (n = 3). Blood samples were collected at 0.083–24 h after drug administration through the retro-orbital venous plexus and the plasma fraction was separated by centrifugation (15,000 rpm, 3 min). […] Mean plasma concentration–time data were calculated using noncompartmental methods (Phoenix WinNonlin software version 6.4; Pharsight Corporation, Mountain View, CA, USA).

A short description of a further series: Plasma stability, rat. The series is classed as in vitro ADME. The conditions noted are these: 37 °C. As to the method:
(§2) Animal plasma (Innovative Research, Inc., Novi, MI, USA) and test compounds (5 μM) were incubated at 37 °C for 4 h. To prevent the reaction, cold acetonitrile was added.

A further series can be described thus: Plasma stability, human. Format: in vitro ADME. The conditions noted are these: 37 °C, read-out: Plasma Stability (% Remaining), Hum. As to the method:
as §2

For another series, the system named is SARS-CoV. Kind of series: microbe, parasite or virus in culture. Format: cell-based. The conditions noted are these: Severe acute respiratory syndrome coronavirus, Vero, 24 h, read-out: IC50, SARS-CoV inhibition.
The test system of series [4] is NA of H5N1 influenza virus. The conditions noted are these: cited from earlier work.
The next series has as its system influenza virus. The conditions noted are these: read-out: IC50, anti-influenza virus activity; cited from earlier work.
A further series relates to MERS-CoV. Kind of series: microbe, parasite or virus in culture. Format: cell-based. The settings on record: Middle East respiratory syndrome-related coronavirus, Vero, 24 h, read-out: IC50, MERS-CoV inhibition, Vero cells, 0.0625 MOI, 24 h post-infection, spike staining.
In the next series the test system is C57BL/6 mice. Put plainly: Five-day repeated-dose toxicity study. The conditions noted are these: male and female mice; for clinical signs and animal death: IP 10 mg/kg, observed for 6 days; for approximately lethal dose: IP 10 mg/kg/day for 5 days.
A further series has as its target CYP2D6 (Homo sapiens, UniProt P10635). Put plainly: CYP450 enzyme inhibition, CYP2D6.
The target of another series is CYP2C9 (Homo sapiens, UniProt P11712). Put plainly: CYP450 enzyme inhibition, CYP2C9.
Series [5] is described as follows: Liver microsomal metabolic stability, human. Format: in vitro ADME. The settings on record: human liver microsomes 0.5 mg protein/mL, 1 μM, 37 °C. As to the method: as §1
The target in another series is SARS-CoV-2 Mpro (Severe acute respiratory syndrome coronavirus 2, UniProt P0DTD1). Put plainly: SARS-CoV-2 Mpro activity assay (assay kit, fluorescence). Format: biochemical. Here is the method: SARS-CoV-2 Mpro activity was measured using the SARS-CoV-2 Mpro assay kit (BPS Bioscience, San Diego, CA, USA) according to the manufacturer’s instructions. The samples were evaluated in duplicated, serially diluted concentrations. The fluorescence intensity of low binding, black, 96-well microtiter plates was detected at an excitation wavelength of 360 nm and an emission wavelength of 460 nm using a microplate spectrophotometer (Bio-Tek, Winooski, VT, USA).

The target of another series is CYP3A4 (Homo sapiens, UniProt P08684). Kind of series: CYP450 enzyme inhibition, CYP3A4.
Another series deals with hERG K+ channel (Homo sapiens, UniProt Q12809). Kind of series: hERG K+ channel automated planar patch clamp assay.
Setting [6] is: male, ICR, mouse, plasma, IP 10 mg/kg.
Where [7] appears, read: male, ICR, mouse, plasma, PO 10 mg/kg.

Like-named read-outs stand apart in the source and are kept apart here.

hERG K+ channel, sequence (Q12809 whole entry): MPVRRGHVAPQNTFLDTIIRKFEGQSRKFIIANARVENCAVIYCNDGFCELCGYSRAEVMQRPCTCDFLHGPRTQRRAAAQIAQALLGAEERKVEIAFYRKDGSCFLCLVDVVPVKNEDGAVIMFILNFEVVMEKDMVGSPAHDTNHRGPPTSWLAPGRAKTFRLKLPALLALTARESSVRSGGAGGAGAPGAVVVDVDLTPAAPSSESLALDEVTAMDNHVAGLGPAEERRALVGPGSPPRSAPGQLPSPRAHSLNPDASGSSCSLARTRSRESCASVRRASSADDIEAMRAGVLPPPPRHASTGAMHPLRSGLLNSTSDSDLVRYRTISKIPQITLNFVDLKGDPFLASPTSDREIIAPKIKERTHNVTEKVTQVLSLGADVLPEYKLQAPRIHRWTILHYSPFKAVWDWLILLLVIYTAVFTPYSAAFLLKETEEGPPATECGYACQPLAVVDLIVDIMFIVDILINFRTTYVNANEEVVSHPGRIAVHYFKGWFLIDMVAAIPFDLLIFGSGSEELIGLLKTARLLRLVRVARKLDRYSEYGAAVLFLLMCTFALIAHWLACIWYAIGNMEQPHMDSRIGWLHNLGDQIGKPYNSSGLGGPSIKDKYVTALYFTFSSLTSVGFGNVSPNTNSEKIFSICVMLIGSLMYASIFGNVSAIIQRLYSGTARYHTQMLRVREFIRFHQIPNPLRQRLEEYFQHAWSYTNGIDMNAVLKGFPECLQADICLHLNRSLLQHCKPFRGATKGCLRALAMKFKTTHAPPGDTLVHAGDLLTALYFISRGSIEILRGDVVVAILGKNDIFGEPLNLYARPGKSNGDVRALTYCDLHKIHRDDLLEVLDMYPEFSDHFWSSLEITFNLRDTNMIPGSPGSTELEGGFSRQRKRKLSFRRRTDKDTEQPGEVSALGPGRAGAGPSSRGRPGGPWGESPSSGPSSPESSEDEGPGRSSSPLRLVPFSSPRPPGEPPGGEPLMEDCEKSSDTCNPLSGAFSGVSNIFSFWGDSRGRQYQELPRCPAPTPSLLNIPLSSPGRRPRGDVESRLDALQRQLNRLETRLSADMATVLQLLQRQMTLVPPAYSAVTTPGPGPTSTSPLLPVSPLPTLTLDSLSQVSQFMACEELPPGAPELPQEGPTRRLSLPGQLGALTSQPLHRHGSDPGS
CYP2C19, sequence (P33261 whole entry): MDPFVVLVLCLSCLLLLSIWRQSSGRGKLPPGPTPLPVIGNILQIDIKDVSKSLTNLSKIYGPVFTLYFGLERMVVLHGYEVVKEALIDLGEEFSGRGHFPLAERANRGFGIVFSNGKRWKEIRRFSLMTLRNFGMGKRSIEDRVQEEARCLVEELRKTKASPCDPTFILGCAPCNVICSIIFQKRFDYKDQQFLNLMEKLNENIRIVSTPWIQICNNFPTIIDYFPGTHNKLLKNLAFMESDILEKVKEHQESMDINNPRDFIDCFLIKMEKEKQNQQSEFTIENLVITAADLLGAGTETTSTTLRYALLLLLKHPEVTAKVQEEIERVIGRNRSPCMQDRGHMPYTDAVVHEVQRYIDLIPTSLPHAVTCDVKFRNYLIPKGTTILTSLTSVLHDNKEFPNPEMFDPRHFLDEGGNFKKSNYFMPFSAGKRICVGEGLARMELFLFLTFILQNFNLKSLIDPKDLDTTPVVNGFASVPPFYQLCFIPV
CYP3A4, sequence (P08684 whole entry): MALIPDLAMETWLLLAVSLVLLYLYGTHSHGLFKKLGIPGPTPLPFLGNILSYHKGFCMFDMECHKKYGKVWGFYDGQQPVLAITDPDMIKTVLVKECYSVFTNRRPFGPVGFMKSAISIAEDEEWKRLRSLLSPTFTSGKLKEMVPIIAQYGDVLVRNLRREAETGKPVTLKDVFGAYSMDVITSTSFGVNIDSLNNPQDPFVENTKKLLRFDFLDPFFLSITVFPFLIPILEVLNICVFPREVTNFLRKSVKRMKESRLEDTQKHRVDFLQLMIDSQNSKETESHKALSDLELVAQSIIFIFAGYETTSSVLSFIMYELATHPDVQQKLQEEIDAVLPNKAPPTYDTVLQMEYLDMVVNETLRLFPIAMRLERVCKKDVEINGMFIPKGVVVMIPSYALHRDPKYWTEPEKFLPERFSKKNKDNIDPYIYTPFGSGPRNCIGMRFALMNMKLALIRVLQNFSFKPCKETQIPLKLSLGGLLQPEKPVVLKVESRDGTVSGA
CYP2D6, sequence (P10635 whole entry): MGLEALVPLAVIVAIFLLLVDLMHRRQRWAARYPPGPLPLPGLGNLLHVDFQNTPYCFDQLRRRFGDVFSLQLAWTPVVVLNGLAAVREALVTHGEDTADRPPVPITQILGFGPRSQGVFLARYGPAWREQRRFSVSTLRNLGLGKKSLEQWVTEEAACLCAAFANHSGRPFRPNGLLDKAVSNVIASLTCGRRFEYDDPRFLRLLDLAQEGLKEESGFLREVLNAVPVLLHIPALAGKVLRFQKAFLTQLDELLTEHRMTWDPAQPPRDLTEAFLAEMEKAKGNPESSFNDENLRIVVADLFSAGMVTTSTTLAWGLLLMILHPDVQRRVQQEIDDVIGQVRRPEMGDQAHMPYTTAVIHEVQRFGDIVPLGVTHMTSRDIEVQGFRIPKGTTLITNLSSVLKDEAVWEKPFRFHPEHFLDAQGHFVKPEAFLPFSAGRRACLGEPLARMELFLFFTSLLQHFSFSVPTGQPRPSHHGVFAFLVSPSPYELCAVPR
CYP2C9, sequence (P11712 whole entry): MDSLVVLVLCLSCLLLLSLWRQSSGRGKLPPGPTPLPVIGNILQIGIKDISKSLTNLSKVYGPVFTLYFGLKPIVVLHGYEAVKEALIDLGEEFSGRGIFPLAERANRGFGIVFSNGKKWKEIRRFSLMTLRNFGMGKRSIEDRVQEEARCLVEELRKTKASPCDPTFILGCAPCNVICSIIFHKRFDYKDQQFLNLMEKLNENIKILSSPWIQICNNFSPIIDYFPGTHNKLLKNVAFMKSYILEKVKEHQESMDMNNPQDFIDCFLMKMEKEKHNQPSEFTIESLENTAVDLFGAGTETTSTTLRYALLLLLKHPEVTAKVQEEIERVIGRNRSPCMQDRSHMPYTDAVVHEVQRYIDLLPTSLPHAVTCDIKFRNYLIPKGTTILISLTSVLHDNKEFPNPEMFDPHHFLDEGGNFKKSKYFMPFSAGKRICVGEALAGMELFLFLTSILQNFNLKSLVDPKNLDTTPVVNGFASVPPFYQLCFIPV

As for `CCCC(=O)c1c(O)c(CC2=C(O)C(C)(C)C(O)=C(C(C)=O)C2=O)c(O)c(Cc2c(O)c(CC3=C(O)C(C)(C)C(O)=C(C(C)=O)C3=O)c(O)c(C(=O)CCC)c2O)c1O` [dryocrassin ABBA, Dryocrassin ABBA], the “MS (%) (Remaining after 30 min), Rat” value in [1] is given as >99%. Moreover, the IC50 (usually the midpoint of a concentration-inhibition curve) against CYP2C19 was 16.1 µM; with SARS-CoV-2 it was 22.4 ± 0.73 µM; against CYP1A2, 14.7 µM; in the series with SARS-CoV, 0.8 ± 0.07 µM; in series [4] it was 18.6 ± 4.53 µM; with influenza virus, 16.5 µM. Moreover, the IC50 in the series with MERS-CoV came to 1.31 ± 0.07 µM; on CYP2D6 it was 13.5 µM; at CYP2C9, 0.4 µM; at SARS-CoV-2 Mpro it was 46.5 ± 1.1 µM; on CYP3A4, 8.33 µM. In addition, in [2], the “MS (%) (Remaining after 30 min), Mice” value stood at 68.3 ± 2.1%. Moreover, the CC50 in “in vitro” is > 50 µM. The AUC (commonly concentration integrated over time) in series [3] (IP 10 mg/kg, n = 3, 10 mg/kg) is 65960 ± 8630 ng·h/mL; in [3] (male, ICR, mouse, plasma, ip, 10 mg/kg, IP 10 mg/kg, n = 3, read-out: AUC), 65000 ng·h/mL; in [3] (male, ICR, mouse, plasma, other: intraperitoneal and oral (range over both arms), 10 mg/kg, in vivo, span over IP and PO 10 mg/kg (abstract), read-out: plasma exposure (AUC)) it was 19300 to 65000 ng·h/mL; in [3] (male, ICR, mouse, plasma, po, 10 mg/kg, PO 10 mg/kg, n = 3, read-out: AUC) it was 19300 ± 1420 ng·h/mL. Moreover, the values for the maximum concentration (Cmax) in series [3] (setting [6]) and in series [3] (setting [7]) were 12800 ± 1790 ng/mL and 3640 ± 570 ng/mL, respectively. The Tmax – broadly, the time from dosing to the highest level – in series [3] (setting [6]) was found to be 1.17 ± 0.76 h; in series [3] (setting [7]), 0.67 ± 0.29 h. Besides, the half-life was 5.5 ± 0.56 h in series [3] (male, ICR, mouse, plasma, IP 10 mg/kg, n = 3, read-out: T1/2 (converted)); 12.6 ± 3.76 h in series [3] (male, ICR, mouse, plasma, PO 10 mg/kg, n = 3, read-out: T1/2 (converted)); 5.5 to 12.6 h in [3] (male, ICR, mouse, plasma, other: intraperitoneal and oral (range over both arms), in vivo, span over IP and PO 10 mg/kg (abstract), read-out: half-life). Also, the amount remaining (as a rule, the share of the starting amount still present when the sample was taken) at 4 h, 5 μM in the series “Plasma stability, rat” came out at 67 ± 7.29%; in “Plasma stability, human”, 29.7 ± 8.37%. Further, the “clinical signs and animal death” value with C57BL/6 mice was “No abnormal clinical signs and animal death”. For the same compound, the approximately lethal dose in the series with C57BL/6 mice is given as > 10 mg/kg. Also, the “MS (%) (Remaining after 30 min), Hum” value in series [5] is reported as >99%. In addition, at hERG K+ channel, at 10 µM the inhibition was 7.27%.

Consider `CCCC(=O)c1c(O)c(CC2=C(O)C(C)(C)C(O)=C(C(C)=O)C2=O)c(O)c(CC2=C(O)C(C)(C)C(O)=C(C(C)=O)C2=O)c1O` [filixic acid ABA], for which the 50% inhibitory concentration (IC50) in the series with SARS-CoV-2 is 25.9 ± 0.81 µM; in the series with SARS-CoV, 4.56 ± 0.21 µM; in [4], 29.6 ± 2.48 µM; with MERS-CoV, 2.68 ± 0.1 µM; at SARS-CoV-2 Mpro (serially diluted compounds 3.125–100 μM, mean ± SEM, read-out: IC50, SARS-CoV-2 Mpro (3CL) activity), 39.6 ± 1.09 µM. Besides, in “in vitro”, the CC50 is > 50 µM. Besides, the “clinical signs and animal death” value in the series on C57BL/6 mice was “No abnormal clinical signs and animal death”. Moreover, in the series on C57BL/6 mice, the approximately lethal dose was > 10 mg/kg.

The values are drawn from paper PMC8879496 (Pharmaceutics, 2022).
